We go through 8 compounds from patent US20200397817A1, “METHOD FOR PREDICTING AND MODULATING SUSCEPTIBILITY OF CANCER CELL TO PROGRAMMED CELL DEATH” (SHIEH, Darbin, priority 2017, published 2020).

For data set [1], the system named is ZVI sensitive OEC-M1 cells. The data set can be described thus: Cell survival assay, ZVI@CMC NPs plus ROS scavenger, OEC-M1. The format is cell-based. The settings on record: 48 h, FIG. 4; for cell viability recovered as compared with ZVI@CMC NPs alone: ROS scavenger together with 5 μg/mL ZVI@CMC NPs. The method, then:
(§1) Cytotoxicity of the ZVI NPs was evaluated by the MTT assay using 3-(4,5-dimethylthiazol-2-yl)-2,5-diphenyltetrazolium bromide. Log-phase OSCC cells were seeded at a density of 5000 cells per well in a 96-well culture plate and incubated for 16 h. The attached cells were then incubated with a series of concentrations of ZVI NPs for 48 h. Subsequently, culture medium of the cells were replaced by fresh complete medium contained 0.5 mg/mL of MTT and the cells were incubated at 37° C. for 1 h. After removing the medium, the resulting MTT crystals were dissolved in DMSO and measured for their optical absorbance at 550 nm to determine viability of the cells.
(§2) Additionally, various cell survival assays were conducted by incubating the cells with 5 μg/mL of ZVI@CMC NPs in combination with an iron chelator (eg. 1 μM of 1, 10-phenanthroline or 1 μM of desferoxamine (DFO)), a ROS scavenger (eg. 100 μM of vitamin C, 100 μM of vitamin E, 100 μM of TEMPOL, 5 μM of mito-lEMPOL, 100 μM Trolox, 100 μM Tiron, or 500 μM NAC), a ferroptosis inhibitor (eg. 5 μM of liproxstatin and 50 μM of ferrostatin) or a ferroptosis inducer (eg. 0.05 μM of RSL-3 or 1 μM of erastin) for 48 h.

For another data set, the system named is ZVI refractory cells. The data set can be described thus: Depolarized cells, ZVI@CMC NPs plus ferroptosis inducer, refractory cells. The format is cell-based. The settings on record: ferroptosis inducer with ZVI@CMC NPs; FIG. 10A.
A further data set relates to ZVI refractory SAS cells. The data set can be described thus: SAS tumor xenograft in SCID mice, tumor growth. The class given is in vivo. The settings on record: 20 mg/kg RSL-3 together with 25 mg/kg ZVI@CMC NPs, tail vein, every other day x4; FIGS. 10B-10D. The source says:
Six to eight week old male mice with severe combined immunodeficiency (SCID) were used as the hosts for OSCC tumor xenografts. 3×10^6 SAS cells were subcutaneously injected into the dorsal flank of the mice to establish tumor lesions. A visible tumor mass was normally observed 1.5 to 2 weeks after the injection. When the tumor size reached approximately 50 mm^3, the mice were randomly assigned to four groups, including a PBS control group, a RSL-3 treatment group, a ZVI@CMC NP treatment group and a ZVI@CMC NP+RSL-3 treatment group (n=4 per group). PBS solution, 20 mg/kg of RSL-3 and 25 mg/kg of ZVI@CMC NPs were individually administered to the mice through tail vein injection once every other day for four times before the final tumor size in every group was measured. The Tumor volumes were measured by a digital caliper and calculated using the formula: […].

Data set [2] concerns ZVI refractory HSC-3, SAS and OEC-M1 R3 cells. In words: Cell survival assay, ZVI@CMC NPs plus ferroptosis inducer, refractory cells. The format is cell-based. The settings on record: ferroptosis inducer in combination with 5 μg/mL ZVI@CMC NPs, 48 h; FIG. 10A. As for the experimental part: as §1, §2
The subject of data set [3] is ZVI sensitive SCC-9 and OEC-M1 cell lines. In words: Mitochondrial membrane potential (MitoTracker flow cytometry), sensitive lines. The format is cell-based. The conditions noted are these: added to ZVI@CMC NPs; FIG. 7C. The method, then: Depolarization of the ZVI NP treated cells was assessed by double staining with 50 nM of MitoTracker Green, a commercial dye for indicating total mitochondrial mass, and 100 nM of MitoTracker Deep Red, another commercial dye for indicating mitochondria membrane potential (ΔΨ), at 37° C. for 30 min, followed by analysis of red fluorescent signals under an excitation wavelength of 644 nm and an emission wavelength of 665 nm and green fluorescent signals under an excitation wavelength of 490 nm and an emission wavelength of 516 nm by a BD Canto II Flow Cytometer.

Data set [4] has as its system ZVI sensitive cells OEC-M1 and SCC-9. In words: Cell survival assay, ZVI@CMC NPs plus co-agent, OEC-M1 and SCC-9. The settings on record: added to 5 μg/mL ZVI@CMC NPs, 48 h; FIG. 7B. The method, then: as §1, §2

With `CC(=O)N[C@@H](CS)C(=O)O` [NAC, N-acetylcysteine], the “effect of co-agent on cytotoxicity of ZVI@CMC NPs” value in data set [1] (cotreatment with 5 μg/mL ZVI@CMC NPs) was “reduce cytotoxicity”.
Take `COC(=O)c1ccc([C@H]2c3[nH]c4ccccc4c3C[C@H](C(=O)OC)N2C(=O)CCl)cc1` [RSL-3, methyl (1S,3R)-2-(2-chloroacetyl)-1-(4-methoxycarbonylphenyl)-1,3,4,9-tetrahydropyrido[3,4-b]indole-3-carboxylate]: the “percentage of depolarized cells” value with ZVI refractory cells is “dramatically increased”. Also, the “tumor growth as compared to ZVI@CMC NPs or RSL-3 alone” value in the data set with ZVI refractory SAS cells is listed as “significantly delayed”. In data set [2], the “cell viability as compared with ZVI@CMC NPs alone” value was “significantly reduced”.
Consider `CC1(C)CC(O)CC(C)(C)N1[O]` [TEMPOL, 4-hydroxy-2,2,6,6-tetramethylpiperidin-1-oxyl], for which the “cell viability recovered as compared with ZVI@CMC NPs alone” value in data set [1] is reported as “about 50%”.
Turning to `O=S(=O)([O-])c1cc(O)c(O)c(S(=O)(=O)[O-])c1.[Na+].[Na+]` [Tiron, disodium 4,5-dihydroxy-1,3-benzenedisulfonate], the “cell viability recovered as compared with ZVI@CMC NPs alone” value in data set [1] is on record as “about 50%”.
As for `Cc1c(C)c2c(c(C)c1O)CCC(C)(C(=O)O)O2` (stereo not shown) [Trolox, 6-Hydroxy-2,5,7,8-tetramethylchroman-2-carboxylic acid], in data set [1], the “cell viability recovered as compared with ZVI@CMC NPs alone” value is “about 50%”.
Take `CCOc1ccccc1-n1c(C(C)N2CCN(C(=O)COc3ccc(Cl)cc3)CC2)nc2ccccc2c1=O` (stereo not shown) [erastin, 2-[1-[4-[2-(4-chlorophenoxy)acetyl]piperazin-1-yl]ethyl]-3-(2-ethoxyphenyl)quinazolin-4-one]: the “percentage of depolarized cells” value with ZVI refractory cells is “dramatically increased”. The “cell viability as compared with ZVI@CMC NPs alone” value in data set [2] is “significantly reduced”.
`CCOC(=O)c1ccc(NC2CCCCC2)c(N)c1` [ferrostatin]: in data set [3], the “percentage of depolarized cells caused by ZVI@CMC NP induced mitochondrial hyperoxidation” value was “reduce the percentage of depolarized cells”. The “recovery of cell viability of ZVI@CMC NP treated cells” value in data set [4] is on record as around 50%.
Taken in the same sequence, the figures for `Clc1cccc(CN=C2Nc3ccccc3NC23CCNCC3)c1` [liproxstatin] were “reduce the percentage of depolarized cells” and around 50%.
